Measured values: ChEMBL document CHEMBL1140134, “Structure-guided design of N-phenyl tertiary amines as transrepression-selective liver X receptor modulators with anti-inflammatory activity” (J Med Chem, 2008)

Tests used:
[1] = biological target: T1, Oxysterols receptor LXR-alpha (Homo sapiens, UniProt Q13133); experiment: Displacement of [N-methyl-3H]GW0438 from human biotinylated LXRalpha ligand binding domain
T1 sequence (Q13133 whole entry): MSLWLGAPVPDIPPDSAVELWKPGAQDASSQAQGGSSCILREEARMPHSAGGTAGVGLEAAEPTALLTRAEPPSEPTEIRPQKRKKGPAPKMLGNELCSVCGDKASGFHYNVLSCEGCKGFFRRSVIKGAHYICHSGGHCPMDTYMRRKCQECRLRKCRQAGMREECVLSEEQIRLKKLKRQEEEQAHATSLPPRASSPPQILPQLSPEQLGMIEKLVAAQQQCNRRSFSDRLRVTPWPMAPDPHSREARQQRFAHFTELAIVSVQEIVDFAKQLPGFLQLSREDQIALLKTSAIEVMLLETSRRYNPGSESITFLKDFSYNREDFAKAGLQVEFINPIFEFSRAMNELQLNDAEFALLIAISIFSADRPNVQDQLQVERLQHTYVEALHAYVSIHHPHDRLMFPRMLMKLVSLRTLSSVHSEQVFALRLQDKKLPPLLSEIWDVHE

THP-1 [2] = experiment: Antiinflammatory activity against human THP1 cells assessed as inhibition of LPS-stimulated IL6 production by ELISA relative to N-(4-(1,1,1,3,3,3-hexafluoro-2-hydroxypropan-2-yl)phenyl)-N-(2,2,2-trifluoroethyl)benzenesulfonamide; type: functional
THP-1 [3] = experiment: Antiinflammatory activity against human THP1 cells assessed as inhibition of LPS-stimulated IL6 production after 6 hrs by ELISA; type: functional, cell-based; conditions: THP-1, 6 h
Huh-7 = experiment: Lipogenic activity against human HuH7 cells assessed as triglyceride accumulation at 10 uM after 4 days relative to N-(4-(1,1,1,3,3,3-hexafluoro-2-hydroxypropan-2-yl)phenyl)-N-(2,2,2-trifluoroethyl)benzenesulfonamide; type: functional
[4] = Metabolic stability in human HuH7 cells at 1 uM after 24 hrs; type: ADME, cell-based, Huh-7; conditions: read-out: Stability
[5] = biological target: T2, Nuclear receptor subfamily 1 group I member 2 (Homo sapiens, UniProt O75469); experiment: Inhibition of human PXR
T2 sequence (O75469 whole entry): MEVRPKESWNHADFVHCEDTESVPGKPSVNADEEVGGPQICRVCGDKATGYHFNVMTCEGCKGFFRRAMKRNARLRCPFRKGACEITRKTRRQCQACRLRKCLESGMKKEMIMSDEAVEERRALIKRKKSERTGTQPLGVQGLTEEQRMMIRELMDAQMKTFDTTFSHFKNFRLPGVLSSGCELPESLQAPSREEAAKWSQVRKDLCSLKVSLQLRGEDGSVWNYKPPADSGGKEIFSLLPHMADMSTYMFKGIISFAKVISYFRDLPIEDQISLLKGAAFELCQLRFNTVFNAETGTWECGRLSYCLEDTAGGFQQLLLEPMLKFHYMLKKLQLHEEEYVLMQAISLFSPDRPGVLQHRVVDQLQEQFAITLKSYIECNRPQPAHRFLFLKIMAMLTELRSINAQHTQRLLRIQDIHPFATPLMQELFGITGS

[6] = biological target: T1, Oxysterols receptor LXR-alpha; experiment: Activation of LXRalpha by GAL4 reporter gene assay
[7] = biological target: Oxysterols receptor LXR-beta (Homo sapiens, UniProt P55055)
Oxysterols receptor LXR-beta, sequence (P55055 whole entry): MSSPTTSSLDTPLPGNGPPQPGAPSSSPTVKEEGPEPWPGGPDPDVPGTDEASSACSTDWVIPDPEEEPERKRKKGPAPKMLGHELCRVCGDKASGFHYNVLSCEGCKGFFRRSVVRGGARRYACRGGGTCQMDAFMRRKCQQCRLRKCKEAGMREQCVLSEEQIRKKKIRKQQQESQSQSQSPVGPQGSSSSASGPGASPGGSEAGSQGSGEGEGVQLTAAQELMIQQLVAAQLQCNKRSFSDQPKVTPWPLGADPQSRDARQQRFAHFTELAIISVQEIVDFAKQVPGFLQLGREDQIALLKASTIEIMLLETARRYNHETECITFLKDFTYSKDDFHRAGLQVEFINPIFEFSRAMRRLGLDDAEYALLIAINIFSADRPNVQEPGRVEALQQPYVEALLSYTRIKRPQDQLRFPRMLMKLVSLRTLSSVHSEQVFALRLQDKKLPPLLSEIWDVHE

CCCCN(Cc1cc(Cl)cc(Cl)c1O)c1ccc(C(O)(C(F)(F)F)C(F)(F)F)cc1
IC50 [1]: 890 nM
Activity (THP-1 [2]): <0.5
IC50 (THP-1 [3]): 1290 nM

CCCCN(Cc1cc(Cl)c(OC)c(Cl)c1)c1ccc(C(O)(C(F)(F)F)C(F)(F)F)cc1
IC50 [1]: 170 nM
Activity (THP-1 [2]): 1
Activity (Huh-7): 0.8
IC50 (THP-1 [3]): 15 nM

CCCCN(Cc1ccc(O)c(Cl)c1)c1ccc(C(O)(C(F)(F)F)C(F)(F)F)cc1
IC50 [1]: 560 nM
Activity (THP-1 [2]): 1
Activity (Huh-7): 0.6
IC50 (THP-1 [3]): 25 nM

CCCCN(Cc1ccccc1O)c1ccc(C(O)(C(F)(F)F)C(F)(F)F)cc1
IC50 [1]: 180 nM
Activity (THP-1 [2]): 1
Activity (Huh-7): 0.6
IC50 (THP-1 [3]): 35 nM

CCCCN(Cc1cccc(O)c1)c1ccc(C(O)(C(F)(F)F)C(F)(F)F)cc1
IC50 [1]: 160 nM
Activity (THP-1 [2]): 1
Activity (Huh-7): 0.5
IC50 (THP-1 [3]): 35 nM

CCCCN(Cc1ccc(O)cc1)c1ccc(C(O)(C(F)(F)F)C(F)(F)F)cc1
IC50 [1]: 955 nM

CCCCN(Cc1cc(Cl)c(OC)c(OC)c1)c1ccc(C(O)(C(F)(F)F)C(F)(F)F)cc1
IC50 [1]: 165 nM
Activity (THP-1 [2]): 1
Activity (Huh-7): 0.4
IC50 (THP-1 [3]): 15 nM

CCCCN(Cc1cc(Cl)c(O)c(Cl)c1)c1ccc(C(O)(C(F)(F)F)C(F)(F)F)cc1
IC50 [1]: 180 nM
Activity (THP-1 [2]): 1
Activity (Huh-7): <0.1
IC50 (THP-1 [3]): 15 nM
remaining at 24 h, 1 µM [4]: 40%
EC50 [5]: 250 nM
EC50 [6]: 3000 nM

CCCCN(Cc1cc(Cl)cc(Cl)c1)c1ccc(C(O)(C(F)(F)F)C(F)(F)F)cc1
IC50 [1]: 195 nM
Activity (THP-1 [2]): 1
Activity (Huh-7): 0.7
IC50 (THP-1 [3]): 10 nM

CCCCN(Cc1cc(OC(F)(F)F)ccc1O)c1ccc(C(O)(C(F)(F)F)C(F)(F)F)cc1
IC50 [1]: 190 nM
Activity (Huh-7): 1

CCCCN(Cc1ccncc1)c1ccc(C(O)(C(F)(F)F)C(F)(F)F)cc1
IC50 [1]: 90 nM
Activity (THP-1 [2]): 1
Activity (Huh-7): 1.1
IC50 (THP-1 [3]): 20 nM

CCCCN(Cc1cccc(OCCO)c1)c1ccc(C(O)(C(F)(F)F)C(F)(F)F)cc1
IC50 [1]: 115 nM
Activity (THP-1 [2]): 1
Activity (Huh-7): 1.8
IC50 (THP-1 [3]): 5 nM

CCCCN(Cc1ccccn1)c1ccc(C(O)(C(F)(F)F)C(F)(F)F)cc1
IC50 [1]: 120 nM
Activity (THP-1 [2]): 1
Activity (Huh-7): 1.1
IC50 (THP-1 [3]): 20 nM

CCCCN(Cc1ccccc1)c1ccc(C(O)(C(F)(F)F)C(F)(F)F)cc1
IC50 [1]: 170 nM
Activity (THP-1 [2]): 1
Activity (Huh-7): 0.8
IC50 (THP-1 [3]): 25 nM

CN(Cc1ccccc1)c1ccc(C(O)(C(F)(F)F)C(F)(F)F)cc1
IC50 [1]: 310 nM
Activity (Huh-7): >0.5

CCCCN(Cc1cc(Cl)ccc1O)c1ccc(C(O)(C(F)(F)F)C(F)(F)F)cc1
IC50 [1]: 220 nM
Activity (THP-1 [2]): 1
Activity (Huh-7): 1
IC50 (THP-1 [3]): 55 nM

OC(c1ccc(N(Cc2ccccc2)Cc2ccccc2)cc1)(C(F)(F)F)C(F)(F)F
IC50 [1]: 315 nM
Activity (Huh-7): >0.5

CCCCN(Cc1cccc(F)c1O)c1ccc(C(O)(C(F)(F)F)C(F)(F)F)cc1
IC50 [1]: 615 nM
Activity (THP-1 [2]): 1
Activity (Huh-7): 1.9
IC50 (THP-1 [3]): 60 nM

CCCCN(Cc1cc(Cl)c(O)c(OC)c1)c1ccc(C(O)(C(F)(F)F)C(F)(F)F)cc1
IC50 [1]: 775 nM
Activity (THP-1 [2]): 1
Activity (Huh-7): <0.2
IC50 (THP-1 [3]): 10 nM

O=C(O)Cc1cccc(OCCCN(Cc2cccc(C(F)(F)F)c2Cl)CC(c2ccccc2)c2ccccc2)c1
IC50 [1]: 235 nM
Activity (THP-1 [2]): 1
Activity (Huh-7): 1
IC50 [7]: 30 nM
IC50 (THP-1 [3]): 20 nM

O=S(=O)(c1ccccc1)N(CC(F)(F)F)c1ccc(C(O)(C(F)(F)F)C(F)(F)F)cc1 [T091317]
Activity (THP-1 [2]): 1
Activity (Huh-7): 1
IC50 (THP-1 [3]): 100 nM
remaining at 24 h, 1 µM [4]: 65%
